Measurements reported in patent US7901498B2, “Trisazo compound, ink composition, printing method and colored product” (Nippon Kayaku Kabushiki Kaisha, priority 2007, dated 2011).

Tests used:
[1] = Light fastness test of inkjet-printed images, xenon weatherometer (coloring matter residual rate); type: physicochemical; settings: for Light fastness: 96 hours, illuminance 100,000 lux, 60% RH, 24° C.; for coloring matter residual rate, light fastness test: 96 hours xenon
Procedure: (§1) The components described below were mixed to obtain a black ink composition of the present invention, and then foreign substances were filtered off using a 0.45 μm membrane filter. Hereinafter, the obtained ink composition was referred to as “ink”.
(§2) In addition, ion-exchanged water was used as water. In ink preparation, the pH of ink was adjusted to pH 7 to 9 with sodium hydroxide and after that, ion-exchanged water was added to make the total amount 100 parts.
(§3) Using each ink obtained in the above manner, inkjet printing was performed on three kinds of information recording sheet (inkjet special paper), glossy paper 1 [trade name: Professional Photopaper PR-101, manufactured by Canon Inc.], glossy paper 2 [trade name: Photo Paper CRISPIA (highly glossy), manufactured by Seiko-Epson Corporation], glossy paper 3 [trade name: Advanced Photo Paper (glossy), manufactured by Hewlett-Packard Development Company] by an inkjet printer (trade name: PIXUS® iP4100) manufactured by Canon Inc.
(§4) In printing, an image pattern was made so that several gradations in reflection density were obtained, and black printed matter was obtained.
(§5) Using a colorimeter (trade name: SpectroEye®) manufactured by GRETAG-MACBETH, change in printed image density was measured by measuring, after the test, the gradation part where the reflection density, D value, was nearest to 1.0 on each printed image before the test.
Using a low temperature xenon weatherometer (trade name: XL75) manufactured by Suga Test Instruments Co., Ltd., each printed image described above was irradiated for 96 hours under the conditions of a luxilluminance of 100,000, a humidity of 60% RH and a temperature of 24° C. and then measured using the above colorimeter, and the coloring matter residual rate of each image was calculated from the formula (reflection density after test/reflection density before test)×100 (%). The test results are evaluated according to the following criteria. • ◯: Residual rate is 85% or more. • Δ: Residual rate is 80% or more and less than 85%. • ×: Residual rate is less than 80%.

[2] = Ozone gas fastness test of inkjet-printed images (coloring matter residual rate); type: physicochemical; settings: 24 hours, ozone 10 ppm; for Ozone gas fastness: 60% RH, 24° C.
Procedure: as §1, §2, §3, §4, §5
Using an ozone weatherometer manufactured by Suga Test Instruments Co., Ltd., each printed image was left for 24 hours under the conditions of an ozone concentration of 10 ppm, a humidity of 60% RH and a temperature of 24° C. After completion of the test, each printed image was measured by the above colorimeter and the coloring matter residual rate was calculated from the formula (reflection density after test/reflection density before test)×100 (%). The test results are evaluated according to the following criteria. • ◯: Residual rate is 70% or more. • Δ: Residual rate is 60% or more and less than 70%. • ×: Residual rate is less than 60%. 2) Light Fastness Test

[3] = Glossy paper 3 (Advanced Photo Paper, Hewlett-Packard)
[4] = Glossy paper 1 (Professional Photopaper PR-101, Canon)
[5] = Glossy paper 2 (Photo Paper CRISPIA, Seiko-Epson)

SMILES | Light fastness [1, 3] | coloring matter residual rate, light fastness test ([1]; glossy paper 1) | coloring matter residual rate, light fastness test ([1]; glossy paper 2) | coloring matter residual rate, ozone gas fastness test ([2]; on any glossy paper (1, 2, 3)) | Light fastness [1, 4] | Light fastness [1, 5] | Ozone gas fastness [2, 4] | Ozone gas fastness [2, 5] | Ozone gas fastness [2, 3]
O=C(O)c1cc(S(=O)(=O)O)ccc1N=Nc1cc(OCCO)c(N=Nc2c(S(=O)(=O)O)cc3c(S(=O)(=O)O)c(N=Nc4c(C(=O)O)nn(-c5ccc(S(=O)(=O)O)cc5)c4O)ccc3c2O)cc1OCCO [Comparative Example 1, reference compound] | Δ (Residual rate is 80% or more and less than 85%.) | less than 80% | less than 80% | less than 60% | – | – | – | – | –
CS(=O)(=O)O.Cc1cc(N=Nc2c(S(=O)(=O)O)cc3c(S(=O)(=O)O)c(N=Nc4c(C)c(C#N)c5nc6ccccc6n5c4O)ccc3c2O)c(OCCCS(=O)(=O)O)cc1N=Nc1nnc(SCCS(=O)(=O)O)s1 [Example 10] | ◯ (Residual rate is 85% or more.) | – | – | – | ◯ (Residual rate is 85% or more.) | Δ (Residual rate is 80% or more and less than 85%.) | ◯ (Residual rate is 70% or more.) | ◯ (Residual rate is 70% or more.) | ◯ (Residual rate is 70% or more.)
CS(=O)(=O)O.Cc1cc(N=Nc2c(S(=O)(=O)O)cc3c(S(=O)(=O)O)c(N=Nc4c(C)c(C#N)c5nc6ccccc6n5c4O)ccc3c2O)c(OCCCS(=O)(=O)O)cc1N=Nc1nc2c(S(=O)(=O)O)cc(S(=O)(=O)O)cc2s1 [Example 13] | ◯ (Residual rate is 85% or more.) | – | – | – | Δ (Residual rate is 80% or more and less than 85%.) | ◯ (Residual rate is 85% or more.) | ◯ (Residual rate is 70% or more.) | ◯ (Residual rate is 70% or more.) | ◯ (Residual rate is 70% or more.)
CS(=O)(=O)O.Cc1cc(N=Nc2c(S(=O)(=O)O)cc3c(S(=O)(=O)O)c(N=Nc4c(C)c(C#N)c5nc6ccccc6n5c4O)ccc3c2O)c(OCCCS(=O)(=O)O)cc1N=Nc1nc2c(S(=O)(=O)O)cc(S(C)(=O)=O)cc2s1 [Example 14] | ◯ (Residual rate is 85% or more.) | – | – | – | ◯ (Residual rate is 85% or more.) | ◯ (Residual rate is 85% or more.) | ◯ (Residual rate is 70% or more.) | ◯ (Residual rate is 70% or more.) | ◯ (Residual rate is 70% or more.)
